Data from patent US20230081426A1, “COMPOUNDS AND METHODS FOR KRAS MODULATION AND INDICATIONS THEREFOR” (Plexxikon Inc., priority 2020, published 2023).

Legend:
[1] = target: T1, G12D-mutant human KRAS (amino acid residues 1-188) (Homo sapiens, UniProt P01116, G12D); assay: KRAS Binding Disruption Assay (AlphaScreen; biotinylated KRpep-2d analogue or RAF1-RBD), G12D; settings: KRAS G12D; geometric mean; read-out: KRAS GMean IC50 (uM) MUTATION: G12D
T1 construct: G12D or G12C-mutant human KRAS (amino acid residues 1-188) with FLAG tag; made in house; host or cells: E. coli
Procedure, shortened: (§1)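 Mutant KRAS (5-20 nM) incubated 1 h at 25° C with test compound and 5-20 nM biotinylated KRpep-2d analogue or RAF1-RBD in 20 mM HEPES pH 7.5, 100 mM NaCl, 5 mM MgCl2, 0.01% Tween-20, 0.01% BSA.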

[2] = target: T2, G12C-mutant human KRAS (amino acid residues 1-188) (Homo sapiens, UniProt P01116, G12C); assay: KRAS Binding Disruption Assay (AlphaScreen; biotinylated KRpep-2d analogue or RAF1-RBD), G12C; settings: geometric mean, read-out: KRAS GMean IC50 (uM) MUTATION: G12C
T2 construct: G12D or G12C-mutant human KRAS (amino acid residues 1-188) with FLAG tag; made in house; host or cells: E. coli
Procedure, shortened: as §1

[3] = target: T3, G12V-mutant human KRAS (amino acid residues 1-188) (Homo sapiens, UniProt P01116, G12V); assay: KRAS Binding Competition Assay (AlphaScreen; biotinylated KRpep-2d analogue), G12V; settings: geometric mean, read-out: KRAS GMean IC50 (uM) MUTATION: G12V
T3 construct: G12V-mutant human KRAS (amino acid residues 1-188) with FLAG tag was purified from E. coli; made in house; host or cells: E. coli

Measured: IC50

O=C(CCCn1ccnc1)N1[C@@H]2CC[C@H]1CN(c1nc(OCC34CCCN3CCC4)nc3c(F)c(-c4cc(O)cc5ccccc45)ccc13)C2 [P-0351, 1-((1R,5S)-3-(8-fluoro-7-(3-hydroxynaphthalen-1-yl)-2-((tetrahydro-1H-pyrrolizin-7a(5H)-yl)methoxy)quinazolin-4-yl)-3,8-diazabicyclo[3.2.1]octan-8-yl)-4-(1H-imidazol-1-yl)butan-1-one]
0.0001 to 10 µM: all assays above

NS(=O)(=O)CC(=O)N1[C@@H]2CC[C@H]1CN(c1nc(OCC34CCCN3CCC4)nc3c(F)c(-c4cc(O)cc5ccccc45)ccc13)C2 [P-0352, 2-((1R,5S)-3-(8-fluoro-7-(3-hydroxynaphthalen-1-yl)-2-((tetrahydro-1H-pyrrolizin-7a(5H)-yl)methoxy)quinazolin-4-yl)-3,8-diazabicyclo[3.2.1]octan-8-yl)-2-oxoethane-1-sulfonamide]
0.0001 to 10 µM: all assays above

N#CCC(=O)N1[C@@H]2CC[C@H]1CN(c1nc(OCC34CCCN3CCC4)nc3c(F)c(-c4cc(O)cc5ccccc45)ccc13)C2 [P-0354, 3-((1R,5S)-3-(8-fluoro-7-(3-hydroxynaphthalen-1-yl)-2-((tetrahydro-1H-pyrrolizin-7a(5H)-yl)methoxy)quinazolin-4-yl)-3,8-diazabicyclo[3.2.1]octan-8-yl)-3-oxopropanenitrile]
0.0001 to 10 µM: all assays above

O=C1CC(CC(=O)N2[C@@H]3CC[C@H]2CN(c2nc(OCC45CCCN4CCC5)nc4c(F)c(-c5cc(O)cc6ccccc56)ccc24)C3)C(=O)N1 (stereo partly drawn) [P-0356, 3-(2-((1R,5S)-3-(8-fluoro-7-(3-hydroxynaphthalen-1-yl)-2-((tetrahydro-1H-pyrrolizin-7a(5H)-yl)methoxy)quinazolin-4-yl)-3,8-diazabicyclo[3.2.1]octan-8-yl)-2-oxoethyl)pyrrolidine-2,5-dione]
0.0001 to 10 µM: all assays above

CN1CCC[C@H]1COc1nc(N2CC3COCC(C2)N3)c2cc(Cl)c(-c3cc(O)cc4cccc(Cl)c34)c(F)c2n1 [P-0365, 4-(4-(3-oxa-7,9-diazabicyclo[3.3.1]nonan-7-yl)-6-chloro-8-fluoro-2-(((S)-1-methylpyrrolidin-2-yl)methoxy)quinazolin-7-yl)-5-chloronaphthalen-2-ol]
0.0001 to 10 µM: all assays above

O=C1NC(=O)C(CC(=O)N2[C@@H]3CC[C@H]2CN(c2nc(OCC45CCCN4CCC5)nc4c(F)c(-c5cc(O)cc6ccccc56)ccc24)C3)N1 (stereo partly drawn) [P-0366]
0.0001 to 10 µM: all assays above

O=C1NC(=O)C(CCC(=O)N2[C@@H]3CC[C@H]2CN(c2nc(OCC45CCCN4CCC5)nc4c(F)c(-c5cc(O)cc6ccccc56)ccc24)C3)N1 (stereo partly drawn) [P-0375, 5-(3-((1R,5S)-3-(8-fluoro-7-(3-hydroxynaphthalen-1-yl)-2-((tetrahydro-1H-pyrrolizin-7a(5H)-yl)methoxy)quinazolin-4-yl)-3,8-diazabicyclo[3.2.1]octan-8-yl)-3-oxopropyl)imidazolidine-2,4-dione]
0.0001 to 10 µM: all assays above

NC1=NC(=O)C(CC(=O)N2[C@@H]3CC[C@H]2CN(c2nc(OCC45CCCN4CCC5)nc4c(F)c(-c5cc(O)cc6ccccc56)ccc24)C3)S1 (stereo partly drawn) [P-0384, 2-amino-5-(2-((1R,5S)-3-(8-fluoro-7-(3-hydroxynaphthalen-1-yl)-2-((tetrahydro-1H-pyrrolizin-7a(5H)-yl)methoxy)quinazolin-4-yl)-3,8-diazabicyclo[3.2.1]octan-8-yl)-2-oxoethyl)thiazol-4 (5H)-one]
0.0001 to 10 µM: all assays above

O=C(Cn1ccnc1)N1[C@@H]2CC[C@H]1CN(c1nc(OCC34CCCN3CCC4)nc3c(F)c(-c4cc(O)cc5ccccc45)ccc13)C2 [P-0387, 1-((1R,5S)-3-(8-fluoro-7-(3-hydroxynaphthalen-1-yl)-2-((tetrahydro-1H-pyrrolizin-7a(5H)-yl)methoxy)quinazolin-4-yl)-3,8-diazabicyclo[3.2.1]octan-8-yl)-2-(1H-imidazol-1-yl)ethan-1-one]
0.0001 to 10 µM: all assays above

CN1CCC[C@H]1COc1nc(N2C[C@H]3CC[C@@H](C2)N3C(=O)C(N)=O)c2ccc(-c3cc(O)cc4ccccc34)c(F)c2n1 [P-0397, 2-((1R,5S)-3-(8-fluoro-7-(3-hydroxynaphthalen-1-yl)-2-(((S)-1-methylpyrrolidin-2-yl)methoxy)quinazolin-4-yl)-3,8-diazabicyclo[3.2.1]octan-8-yl)-2-oxoacetamide]
0.0001 to 10 µM: all assays above

NS(=O)(=O)NCC(=O)N1[C@@H]2CC[C@H]1CN(c1nc(OCC34CCCN3CCC4)nc3c(F)c(-c4cc(O)cc5ccccc45)ccc13)C2 [P-0408, N-(2-((1R,5S)-3-(8-fluoro-7-(3-hydroxynaphthalen-1-yl)-2-((tetrahydro-1H-pyrrolizin-7a(5H)-yl)methoxy)quinazolin-4-yl)-3,8-diazabicyclo[3.2.1]octan-8-yl)-2-oxoethyl)aminosulfonamide]
0.0001 to 10 µM: all assays above

N#CC1(CC(=O)N2[C@@H]3CC[C@H]2CN(c2nc(OCC45CCCN4CCC5)nc4c(F)c(-c5cc(O)cc6ccccc56)ccc24)C3)CC1 [P-0409, 1-(2-((1R,5S)-3-(8-fluoro-7-(3-hydroxynaphthalen-1-yl)-2-((tetrahydro-1H-pyrrolizin-7a(5H)-yl)methoxy)quinazolin-4-yl)-3,8-diazabicyclo[3.2.1]octan-8-yl)-2-oxoethyl)cyclopropane-1-carbonitrile]
0.0001 to 10 µM: all assays above

O=C1N=C(S)SC1CC(=O)N1[C@@H]2CC[C@H]1CN(c1nc(OCC34CCCN3CCC4)nc3c(F)c(-c4cc(O)cc5ccccc45)ccc13)C2 (stereo partly drawn) [P-0411, 5-(2-((1R,5S)-3-(8-fluoro-7-(3-hydroxynaphthalen-1-yl)-2-((tetrahydro-1H-pyrrolizin-7a(5H)-yl)methoxy)quinazolin-4-yl)-3,8-diazabicyclo[3.2.1]octan-8-yl)-2-oxoethyl)-2-mercaptothiazol-4(5H)-one]
0.0001 to 10 µM: all assays above

CN1C(=O)SC(CC(=O)N2[C@@H]3CC[C@H]2CN(c2nc(OCC45CCCN4CCC5)nc4c(F)c(-c5cc(O)cc6ccccc56)ccc24)C3)C1=O (stereo partly drawn) [P-0412, 5-(2-((1R,5S)-3-(8-fluoro-7-(3-hydroxynaphthalen-1-yl)-2-((tetrahydro-1H-pyrrolizin-7a(5H)-yl)methoxy)quinazolin-4-yl)-3,8-diazabicyclo[3.2.1]octan-8-yl)-2-oxoethyl)-3-methylthiazolidine-2,4-dione]
0.0001 to 10 µM: all assays above

O=C1N[C@@H](CC(=O)N2[C@@H]3CC[C@H]2CN(c2nc(OCC45CCCN4CCC5)nc4c(F)c(-c5cc(O)cc6ccccc56)ccc24)C3)CO1 [P-0414, (S)-4-(2-((1R,5S)-3-(8-fluoro-7-(3-hydroxynaphthalen-1-yl)-2-((tetrahydro-1H-pyrrolizin-7a(5H)-yl)methoxy)quinazolin-4-yl)-3,8-diazabicyclo[3.2.1]octan-8-yl)-2-oxoethyl)oxazolidin-2-one]
0.0001 to 10 µM: all assays above
